Biological target: nuclear receptor TLX (NR2E1) ligand-binding domain (Homo sapiens (Human), UniProt Q9Y466)
Assay: AlphaScreen assay detecting TLX-RIP140 NR box peptide interaction
Assay type: biochemical
Settings: for EC50 / Efficacy (fold increase): his-tagged TLX LBD, biotinylated RIP140-L6 peptide recruitment; for Emax: read-out: Relative efficacy (%)
Method: In these experiments, compounds from Example 1 were evaluated in a biochemical assay to characterize ligand binding to TLX by detecting alterations in the ability of the TLX ligand binding domain to recruit an NR box peptide derived from the nuclear receptor-interacting protein 1 (NRIP1; receptor-interacting protein 140 (RIP140) transcriptional cofactor. RIP140 has been previously identified as a TLX interacting protein (Corso-Diaz X, et al. (2016) Co-activator candidate interactions for orphan nuclear receptor NR2E1. BMC Genomics 17:832).
AlphaScreen (Perkin Elmer, Shelton, CT) technology was used to detect the TLX-RIP140 NR box peptide interaction. The AlphaScreen assay was performed as previously described using other nuclear receptors including ROR, FXR, LXR, VDR and RXR (Bettoun D J, et al., (2003) Mol Endocrinol 17:2320-2328; Bramlett K S, et al., (2003) Journal of Pharmacology and Experimental Therapeutics 307:291-296; Houck K A, at al., (2004) Mol Genet Metab 83:184-187; Kumar N, et al., (2010) Mol Pharmacol 77:228-236; and Wang Y, et al., (2010) ACS Chemical Biology: 1029-1034. The present experiments used the N-terminal his-tagged ligand-binding domain (LBD) of TLX (NovAliX SAS, Strasbourg, France) and an N-terminal biotinylated RIP140-L6 peptide with a N-terminal KGG linker, namely ([…] (aa484-513)).

Chain of nuclear receptor TLX (NR2E1) ligand-binding domain (Q9Y466 155-383): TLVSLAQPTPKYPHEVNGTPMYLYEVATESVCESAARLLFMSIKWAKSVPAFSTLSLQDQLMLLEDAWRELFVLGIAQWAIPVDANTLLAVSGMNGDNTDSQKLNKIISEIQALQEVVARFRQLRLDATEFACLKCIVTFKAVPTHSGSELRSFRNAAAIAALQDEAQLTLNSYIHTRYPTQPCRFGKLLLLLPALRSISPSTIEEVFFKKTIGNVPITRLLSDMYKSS

Row | Structure (SMILES) | EC50 | Efficacy (fold increase) | Emax (relative to oleic acid = 100.0) | Relative efficacy (%) (relative to oleic acid = 100.0)
1 | CCCCCCCCC[C@@H](C)/C=C(/C)C/C(C)=C/[C@H](C)CC(=O)O [Compound 1-C] | 3100 nM | 6.8 fold | 81% | –
2 | CCCCCC/C=C(/C)C/C(C)=C/[C@@H](C)CCCCCC(=O)O [Compound 3-B] | 900 nM | 6.6 fold | 78.6% | –
3 | CCCCC[C@H](C)/C=C(/C)C/C(C)=C/[C@H](C)CCCCCC(=O)O [Compound 3-E] | 1000 nM | 6.3 fold | 75% | –
4 | CCC[C@@H](C)/C=C(/C)C/C(C)=C/[C@H](C)CCCCCCCC(=O)O [Compound 4-C] | 1500 nM | 6.2 fold | 73.8% | –
5 | CCCCCCC[C@@H](C)/C=C(/C)C/C(C)=C/[C@H](C)CCCC(=O)O [Compound 2-C] | 1500 nM | 6.6 fold | 78.6% | –
6 | CCCC/C=C(/C)C/C(C)=C/[C@H](C)CCCCCCCC(=O)O [Compound 4-A] | 1500 nM | 6.6 fold | 78.6% | –
7 | CCC[C@H](C)/C=C(/C)C/C(C)=C/[C@@H](C)CCCCCCCC(=O)O [Compound 4-F] | 1900 nM | 6.0 fold | 71.4% | –
8 | CCCCCCCC/C=C(/C)C/C(C)=C/[C@H](C)CCCC(=O)O [Compound 2-A] | 2500 nM | 6.6 fold | 78.6% | –
9 | CCCCCCCCC[C@H](C)/C=C(/C)C/C(C)=C/[C@H](C)CC(=O)O [Compound 1-E] | 1700 nM | 6.2 fold | 73.8% | –
10 | CCCCC[C@@H](C)/C=C(/C)C/C(C)=C/[C@@H](C)CCCCCC(=O)O [Compound 3-D] | 1200 nM | 6.1 fold | 72.6% | –
11 | CCCCC[C@H](C)/C=C(/C)C/C(C)=C/[C@@H](C)CCCCCC(=O)O [Compound 3-F] | 900 nM | 6.0 fold | 71.4% | –
12 | CCCCCCC[C@H](C)/C=C(/C)C/C(C)=C/[C@H](C)CCCC(=O)O [Compound 2-E] | 1300 nM | 5.8 fold | 69% | –
13 | CCC[C@@H](C)/C=C(/C)C/C(C)=C/[C@@H](C)CCCCCCCC(=O)O [Compound 4-D] | 1600 nM | 6.2 fold | 73.8% | –
14 | CCCCCCCCC[C@@H](C)/C=C(/C)C/C(C)=C/[C@@H](C)CC(=O)O [Compound 1-D] | 3200 nM | 7.1 fold | 84.5% | –
15 | CCCCCCCCCC/C=C(/C)C/C(C)=C/[C@H](C)CC(=O)O [Compound 1-A] | 2200 nM | 6.1 fold | 72.6% | –
16 | CCCCCCCC/C=C\CCCCCCCC(=O)O [Oleic Acid, oleic acid, reference compound] | 3600 nM | 8.4 fold | – | 100.0%
17 | CCCCCCC[C@@H](C)/C=C(/C)C/C(C)=C/[C@@H](C)CCCC(=O)O [Compound 2-D] | 1300 nM | 5.8 fold | 69% | –
18 | CCCCCC/C=C(/C)C/C(C)=C/[C@H](C)CCCCCC(=O)O [Compound 3-A] | 1600 nM | 6.5 fold | 77.4% | –
19 | CCCCC[C@@H](C)/C=C(/C)C/C(C)=C/[C@H](C)CCCCCC(=O)O [Compound 3-C] | 800 nM | 5.5 fold | 65.5% | –
20 | CCCCCCCCC[C@H](C)/C=C(/C)C/C(C)=C/[C@@H](C)CC(=O)O [Compound 1-F] | 1900 nM | 7.2 fold | 85.7% | –
21 | CCCCCCCC/C=C(/C)C/C(C)=C/[C@@H](C)CCCC(=O)O [Compound 2-B] | 3100 nM | 6.6 fold | 78.6% | –
22 | CCC[C@H](C)/C=C(/C)C/C(C)=C/[C@H](C)CCCCCCCC(=O)O [Compound 4-E] | 1300 nM | 5.7 fold | 67.9% | –
23 | CCCC/C=C(/C)C/C(C)=C/[C@@H](C)CCCCCCCC(=O)O [Compound 4-B] | 3000 nM | 7.1 fold | 84.5% | –
24 | CCCCCCC[C@H](C)/C=C(/C)C/C(C)=C/[C@@H](C)CCCC(=O)O [Compound 2-F] | 1600 nM | 6.1 fold | 72.6% | –
25 | CCCCCCCCCC/C=C(/C)C/C(C)=C/[C@@H](C)CC(=O)O [Compound 1-B] | 2400 nM | 6.5 fold | 77.4% | –
